# Test results reported in patent US20230096028A1, “BICYCLIC HETEROCYCLYL COMPOUNDS AND USES THEREOF” (Revolution Medicines, Inc., priority 2019, published 2023).
# Experiments:
# [1] = test system: PC-9 cells (EGFR Ex19Del); test: Potency Assay: pERK (SOS1 pERK IC50 Assay, AlphaLISA SureFire Ultra p-ERK1/2); format: cell-based; details: Homo sapiens; PC-9 cells (EGFR Ex19Del), 1 hour incubation, AlphaLISA p-ERK1/2; read-out: SOS1 pERK IC50
# Procedure: The purpose of this assay is to measure the ability of test compounds to inhibit SOS1 function in cells. SOS1 activates RAS proteins by catalyzing the conversion of RAS GDP to RAS GTP in response to receptor tyrosine kinase activation. […] The procedure described below measures the level of cellular pERK in response to test compounds in PC-9 cells (EGFR Ex19Del).
# PC-9 cells were grown and maintained using media and procedures recommended by the ATCC. On the day prior to compound addition, cells were plated in 384-well cell culture plates (40 μL/well) and grown overnight in a 37° C., 5% CO2 incubator. Test compounds were prepared in 10, 3-fold dilutions in DMSO, with a top concentration of 10 mM. On the day of the assay, 40 nL of test compound was added to each well of cell culture plate using an Echo550 liquid handler (LabCyte). Concentrations of test compound were tested in duplicate with highest test concentration being 10 μM. After compound addition, cells were incubated for 1 hour at 37° C., 5% CO2. Following incubation, culture medium was removed and cells were washed once with phosphate buffered saline.
# Cellular pERK level was determined using the AlphaLISA SureFire Ultra p-ERK1/2 Assay Kit (PerkinElmer). Cells were lysed in 25 μL lysis buffer, with shaking at 600 RPM at room temperature for 15 minutes. Lysate (10 μL) was transferred to a 384-well Opti-plate (PerkinElmer) and 5 μL acceptor mix was added. The plate was centrifuged at 1000 RPM for 1 minute, and incubated in the dark for 2 hours. Following this incubation, 5 μL of donor mix was added, the plate was sealed and centrifuged at 1000 RPM for 1 minute, and the mixture was incubated for 2 hours at room temperature. Signal was read on an Envision plate reader (PerkinElmer) using standard AlphaLISA settings. Analysis of raw data was carried out in Excel (Microsoft) and Prism (GraphPad). Signal was plotted vs. the decadal logarithm of compound concentration, and IC50 was determined by fitting a 4-parameter sigmoidal concentration response model.
# [2] = molecular target: T1, SOS1 catalytic domain (residues 564-1049) (Homo sapiens, UniProt Q07889); test: Mode of Action Assay: inhibition of SOS1 nucleotide exchange activity (SOS1 TR-FRET IC50 Assay)
# T1 sequence (Q07889 564-1049): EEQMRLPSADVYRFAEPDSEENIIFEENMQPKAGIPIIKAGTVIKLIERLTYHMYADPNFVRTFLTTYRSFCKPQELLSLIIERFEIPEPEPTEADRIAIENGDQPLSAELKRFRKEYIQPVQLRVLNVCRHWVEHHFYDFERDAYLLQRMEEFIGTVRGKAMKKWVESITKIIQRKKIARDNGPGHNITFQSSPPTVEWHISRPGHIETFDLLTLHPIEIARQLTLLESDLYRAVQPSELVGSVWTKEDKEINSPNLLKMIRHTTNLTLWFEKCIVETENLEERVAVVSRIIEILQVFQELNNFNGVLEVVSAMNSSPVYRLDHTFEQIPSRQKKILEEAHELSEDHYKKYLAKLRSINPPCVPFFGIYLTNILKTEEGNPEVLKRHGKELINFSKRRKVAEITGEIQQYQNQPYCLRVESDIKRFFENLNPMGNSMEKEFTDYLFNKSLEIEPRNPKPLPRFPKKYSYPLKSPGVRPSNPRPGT
Structure (SMILES),IC50 [1],IC50 [2]
C[C@@H](Nc1nc(Cl)nc2c1CN(C(=O)C1(O)CCOCC1)CC2)c1cc(N)cc(C(F)(F)F)c1 [Example 189],> 1 µM,> 1 µM
CO[C@H]1C[C@H](C(=O)N2CCc3nc(Cl)nc(N[C@H](C)c4cc(N)cc(C(F)(F)F)c4)c3C2)C1 [Example 190],> 1 µM,> 1 µM
CC(C)OC1(C(=O)N2CCc3nc(Cl)nc(N[C@H](C)c4cc(N)cc(C(F)(F)F)c4)c3C2)CCOC1 (some centres unmarked) [Example 195],> 1 µM,> 1 µM
COC12CCC(C(=O)N3CCc4nc(Cl)nc(N[C@H](C)c5cc(N)cc(C(F)(F)F)c5)c4C3)(CC1)C2 [Example 196],> 1 µM,> 1 µM
C[C@@H](Nc1nc(Cl)nc2c1CN(C(=O)C1CC13CCOCC3)CC2)c1cc(N)cc(C(F)(F)F)c1 (some centres unmarked) [Example 197],> 1 µM,> 1 µM
COC1CCC(C(=O)N2CCc3nc(Cl)nc(N[C@H](C)c4cc(N)cc(C(F)(F)F)c4)c3C2)C1 (some centres unmarked) [Example 199],> 1 µM,> 1 µM
C[C@@H](Nc1nc(Cl)nc2c1CN(C(=O)C1CCCN1c1ncccn1)CC2)c1cc(N)cc(C(F)(F)F)c1 (some centres unmarked) [Example 200],> 1 µM,> 1 µM
COC1(C(=O)N2CCc3nc(Cl)nc(N[C@H](C)c4cc(N)cc(C(F)(F)F)c4)c3C2)CC1 [Example 201],> 1 µM,> 1 µM
C[C@@H](Nc1nc(Cl)nc2c1CN(C(=O)C1(C#N)CCC1)CC2)c1cc(N)cc(C(F)(F)F)c1 [Example 202],> 1 µM,> 1 µM
COC1(C(=O)N2CCc3nc(Cl)nc(N[C@H](C)c4cc(N)cc(C(F)(F)F)c4)c3C2)CCC1 [Example 203],> 1 µM,> 1 µM
COCC1(C(=O)N2CCc3nc(Cl)nc(N[C@H](C)c4cc(N)cc(C(F)(F)F)c4)c3C2)CCC1 [Example 204],> 1 µM,< 1 µM
C[C@@H](Nc1nc(Cl)nc2c1CN(C(=O)C1(CO)CC1)CC2)c1cc(N)cc(C(F)(F)F)c1 [Example 206],> 1 µM,> 1 µM
C[C@@H](Nc1nc(Cl)nc2c1CN(C(=O)C1CCC1)CC2)c1cc(N)cc(C(F)(F)F)c1 [Example 209],> 1 µM,> 1 µM
C[C@@H](Nc1nc(Cl)nc2c1CN(C(=O)C13CC(C)(C1)OC31COC1)CC2)c1cc(N)cc(C(F)(F)F)c1 [Example 210],> 1 µM,> 1 µM
C[C@@H](Nc1nc(Cl)nc2c1CN(C(=O)C13CC(C1)C3)CC2)c1cc(N)cc(C(F)(F)F)c1 [Example 211],> 1 µM,> 1 µM
COCC1(C(=O)N2CCc3nc(Cl)nc(N[C@H](C)c4cc(N)cc(C(F)(F)F)c4)c3C2)CC1 [Example 213],> 1 µM,> 1 µM
C[C@@H](Nc1nc(Cl)nc2c1CN(C(=O)C13OCCCC1C3(F)F)CC2)c1cc(N)cc(C(F)(F)F)c1 (some centres unmarked) [Example 214],> 1 µM,> 1 µM
C[C@@H](Nc1nc(Cl)nc2c1CN(C(=O)[C@]13COC[C@H]1CS(=O)(=O)C3)CC2)c1cc(N)cc(C(F)(F)F)c1 [Example 215],> 1 µM,> 1 µM
C[C@@H](Nc1nc(Cl)nc2c1CN(C(=O)[C@@]13CCC[C@@H]1OCC3)CC2)c1cc(N)cc(C(F)(F)F)c1 [Example 216],> 1 µM,> 1 µM
C[C@@H](Nc1nc(Cl)nc2c1CN(C(=O)C13CCC(CC1)O3)CC2)c1cc(N)cc(C(F)(F)F)c1 [Example 218],> 1 µM,> 1 µM
C[C@@H](Nc1nc(Cl)nc2c1CN(C(=O)C13COC(CCO1)C3)CC2)c1cc(N)cc(C(F)(F)F)c1 (some centres unmarked) [Example 220],> 1 µM,> 1 µM
COC1(C(=O)N2CCc3nc(Cl)nc(N[C@H](C)c4cc(N)cc(C(F)(F)F)c4)c3C2)CCCOC1 (some centres unmarked) [Example 224],> 1 µM,> 1 µM
C[C@@H](Nc1nc(Cl)nc2c1CN(C(=O)c1cc(N3CCOCC3)nc(N3CCOCC3)n1)CC2)c1cc(N)cc(C(F)(F)F)c1 [Example 230],> 1 µM,> 1 µM

# Other lines, results leading:
IC50 [1],IC50 [2],Structure (SMILES)
> 1 µM,< 1 µM,COc1cccc(C(=O)N2CCc3nc(Cl)nc(N[C@H](C)c4cc(N)cc(C(F)(F)F)c4)c3C2)n1 [Example 242]
> 1 µM,> 1 µM,C[C@@H](Nc1nc(Cl)nc2c1CN(C(=O)c1cncc(N3CCOCC3)n1)CC2)c1cc(N)cc(C(F)(F)F)c1 [Example 243]
> 1 µM,> 1 µM,COc1ccc(C(=O)N2CCc3nc(Cl)nc(N[C@H](C)c4cc(N)cc(C(F)(F)F)c4)c3C2)nc1 [Example 245]
> 1 µM,> 1 µM,C[C@@H](Nc1nc(Cl)nc2c1CN(C(=O)c1ccc3c(n1)OCCO3)CC2)c1cc(N)cc(C(F)(F)F)c1 [Example 249]
> 1 µM,> 1 µM,C[C@@H](Nc1nc(Cl)nc2c1CN(C(=O)c1cccc(Cl)n1)CC2)c1cc(N)cc(C(F)(F)F)c1 [Example 252]
< 1 µM,< 1 µM,COC1COCCC1CC(=O)N1Cc2nc(Cl)nc(N[C@H](C)c3cc(N)cc(C(F)(F)F)c3)c2C1 (some centres unmarked) [Example 258]
< 1 µM,< 1 µM,COC1(C(=O)N2Cc3nc(Cl)nc(N[C@H](C)c4cccc(C(F)(F)CO)c4)c3C2)CN(C2COC2)C1 [Example 267]
> 1 µM,< 1 µM,C[C@@H](Nc1nc(Cl)nc2c1CN(C(=O)C1CNC1)C2)c1cc(N)cc(C(F)(F)F)c1 [Example 268]
> 1 µM,< 1 µM,C[C@@H](Nc1nc(Cl)nc2c1CN(C(=O)[C@H]1[C@@H]3CNC[C@@H]31)C2)c1cc(N)cc(C(F)(F)F)c1 [Example 269]
< 1 µM,< 1 µM,C[C@@H](Nc1nc(Cl)nc2c1CN(C(=O)C13COCC(CO1)C3)C2)c1cc(N)cc(C(F)(F)F)c1 (some centres unmarked) [Example 273]
< 1 µM,< 1 µM,C[C@@H](Nc1nc(Cl)nc2c1CN(C(=O)C1OCCN(C)C1=O)C2)c1cccc(C(F)F)c1F (some centres unmarked) [Example 301]
> 1 µM,< 1 µM,C[C@@H](Nc1nc(Cl)nc2c1CN(C(=O)[C@@H]1COC[C@@H]1N)C2)c1cccc(C(F)F)c1F [Example 308]
< 1 µM,< 1 µM,C[C@@H](Nc1nc(Cl)nc2c1CN(C(=O)N1CCOc3cccnc31)C2)c1cccc(C(F)(F)F)c1 [Example 368]
< 1 µM,< 1 µM,C[C@@H](Nc1nc(Cl)nc2c1CN(C(=O)N1CCc3ncccc31)C2)c1cccc(C(F)(F)F)c1 [Example 371]
< 1 µM,< 1 µM,C[C@@H](Nc1nc(Cl)nc2c1CN(C(=O)N1CCNc3ccccc31)C2)c1cccc(C(F)(F)F)c1 [Example 372]
< 1 µM,< 1 µM,C[C@@H](Nc1nc(Cl)nc2c1CN(C(=O)N1CCNC3CC31)C2)c1cccc(C(F)(F)F)c1 (some centres unmarked) [Example 379]
> 1 µM,< 1 µM,C[C@@H](Nc1nc(Cl)nc2c1C[C@H](N1CCOCC1)CC2)c1cccc(C(F)F)c1F [Example 441]
> 1 µM,> 1 µM,COC1CN([C@@H]2CCc3ncnc(N[C@H](C)c4cccc(C(F)F)c4F)c3C2)C1 [Example 443]
> 1 µM,> 1 µM,"CC(Nc1nc(Cl)nc2c1CN(C(=O)N1CCOCC1)C2)c1cccc(S(F)(F)(F)(F)F)c1 (centres unmarked) [Example 462, [2-chloro-4-[1-[3-(pentafluoro-sulfanyl)phenyl]ethylamino]-5,7-dihydropyrrolo[3,4-d]pyrimidin-6-yl]-morpholino-methanone]"
> 1 µM,> 1 µM,"CC(Nc1nc(Cl)nc2c1CN(C(=O)N1CCOCC1)C2)c1cc(C(F)(F)F)ccn1 (centres unmarked) [Example 472, 2-chloro-6-(morpholine-4-carbonyl)-N-{1-[4-(trifluoromethyl)pyridin-2-yl]ethyl}-5H,6H,7H-pyrrolo[3,4-d]pyrimidin-4-amine]"
